One assay concerns TNF-α. Description: TNF-α release from U937 cells (LPS-induced, DELFIA). In kind it is cell-based. The conditions noted are these: Homo sapiens, U-937; for IC50: PMA-pretreated U937 cells, 1 ng/ml LPS, 18 hours, read-out: IC50 LPS-induced TNF production in U937 cells. As for the experimental part: The effect of the compounds of the invention on TNF-α release was investigated using a known method (Lozanski, G. et al., (1992), J. Rheumatol; 19, 921-26).
The human histolytic lymphoma U937 cell line was obtained from a commercial source (ECACC, Salisbury, UK) and maintained in RPMI 1640 medium supplemented with 2 mM L-glutamine and 5% fetal bovine serum. The cells were pretreated with 25 ng/ml PMA for six hours and then exposed to dose ranges of the compound to be tested followed by the addition of 1 ng/ml LPS.
After 18 hours incubation at 37° C. with 5% CO2 the cell culture supernatants were harvested and stored at −70° C., until required for determination of TNF-α secretion by Dissociation Enhanced Lanthanide Fluorescence Immuno Assay (DELFIA). The effect of the compounds on cell cytotoxicity was measured using the tetrazolium salt, XTT (2,3-bis[2-methoxy-4-nitro-5-sulphophenyl]-2H-tetrazolium-5-carboxanilide salt) and effects on protein synthesis were determined by investigation of [^3H] Leucine uptake.

A further assay concerns IL-1β. Description: IL-1β release from human monocytes (LPS-induced, ELISA). In kind it is cell-based. To be noted: Monocyte; for IC50: human monocytes, 1 ng/ml LPS, 18 hours, read-out: IC50 LPS-induced IL-β production (monocytes). An excerpt: The effect of the compounds of the invention on IL-Iβ release was investigated using a known method (Bakouche, O. et al., (1992), J. Immunol: 148, 84-91). Human monocytes were purified by elutriation from Buffy coats obtained from normal healthy donors after the separation of peripheral blood mononuclear cells (PBMC) on Lymphoprep. The freshly isolated monocytes were suspended in RPMI 1640 supplemented with 5% FBS and exposed to dose ranges of the compound to be tested followed by the addition of 1 ng/ml LPS. Cells were incubated for 18 hours at 37° C. with 5% CO2 and the cell culture supernatants harvested and stored at −70° C. Effects on the production of IL-1β were determined using an ELISA.
(In an ELISA, binding on a coated surface is turned into a signal by an enzyme label.)

A word on the IC50: it is the concentration that inhibits the measured activity by half. As usually defined, the inhibition is the drop in the measured response relative to a control, in per cent. As for `CCCCCC[C@H](C)/C=C(C)/C=C/C(=O)[C@H]1C=CC(=O)O[C@H]1/C=C/C(=O)O` [R in formula (I) is CO2H, 3-((5S,6S)-5,6-dihydro-5-((6S)-4,6-dimethyldodeca-2E,4E-dienoyl)-2H-pyran-2-on-6-yl)-prop-2E-enoic acid], the IC50 in the assay on TNF-α and with IL-1β was 2000 nM each time. For the same molecule, the inhibition at 0.12 µM in the assay on TNF-α (concentration 0.12 μM) was 47%. Also, the inhibition at 0.5 µM was found to be 77% in the assay on TNF-α (concentration 0.5 μM) and 14% in the assay with IL-1β (Homo sapiens, concentration 0.5 μM). Besides, the inhibition at 2 µM in the assay with TNF-α (concentration 2 μM) was 100%; in the assay on IL-1β (Homo sapiens, concentration 2 μM), 81.5%. The inhibition at 8 µM in the assay with TNF-α (concentration 8 μM) came out at 107%. For the same molecule, the inhibition at 20 µM in the assay on IL-1β (Homo sapiens, concentration 20 μM) was 99%.

Consider `C/C=C/[C@@H]1OC(=O)C=C[C@@H]1C(=O)/C=C/C(C)=C/[C@@H](C)CCCCCC` [R in formula (I) is CH3, 3-((5S,6S)-5,6-dihydro-5-((6S)-4,6-dimethyldodeca-2E,4E-dienoyl)-2H-pyran-2-on-6-yl)-prop-2E-ene], for which the results for the 50% inhibitory concentration (IC50) with TNF-α and in the assay on IL-1β were 80 nM and 190 nM, respectively. The inhibition at 0.01 µM in the assay on TNF-α (concentration 0.01 μM) was 0.85%. The inhibition at 0.04 µM in the assay on TNF-α (concentration 0.04 μM) was found to be 20%. In the assay with TNF-α (concentration 0.17 μM), the inhibition at 0.17 µM stood at 61%. Moreover, the inhibition at 0.7 µM with TNF-α (concentration 0.7 μM) stood at 90%. In the assay on TNF-α (concentration 2.8 μM), the inhibition at 2.8 µM came out at 99%. Besides, the inhibition at 0.044 µM with IL-1β (Homo sapiens, concentration 0.044 μM) turned out to be 23%. For the same molecule, the inhibition at 0.22 µM with IL-1β (Homo sapiens, concentration 0.22 μM) worked out at 41%. Also, the inhibition at 1.1 µM in the assay on IL-1β (Homo sapiens, concentration 1.1 μM) is 72%. The inhibition at 5.5 µM with IL-1β (Homo sapiens, concentration 5.5 μM) is 88%.

The record behind these values is patent US6784203B1, “Cytokine production inhibitors” (Cubist Pharmaceuticals, Inc., priority 2001, dated 2004).
